Reference: patent US10968225B2, “Compounds and compositions for the treatment of cystic fibrosis” (Fondazione Istituto Italiano Di Tecnologia, priority 2017, dated 2021)

What follows are compounds tested against T1, mutant CFTR (Homo sapiens, UniProt P13569, DEL508-508) (assay: Fluorescence (HS-YFP) assay for CFTR activity, corrector assay). Details: CFBE41o- and FRT cells with stable expression of mutant CFTR, read-out: activity (EC50).
T1 construct: expressed in transfected cells
Format: cell-based

T1 sequence (P13569 with tags, fused parts or gaps DEL508-508): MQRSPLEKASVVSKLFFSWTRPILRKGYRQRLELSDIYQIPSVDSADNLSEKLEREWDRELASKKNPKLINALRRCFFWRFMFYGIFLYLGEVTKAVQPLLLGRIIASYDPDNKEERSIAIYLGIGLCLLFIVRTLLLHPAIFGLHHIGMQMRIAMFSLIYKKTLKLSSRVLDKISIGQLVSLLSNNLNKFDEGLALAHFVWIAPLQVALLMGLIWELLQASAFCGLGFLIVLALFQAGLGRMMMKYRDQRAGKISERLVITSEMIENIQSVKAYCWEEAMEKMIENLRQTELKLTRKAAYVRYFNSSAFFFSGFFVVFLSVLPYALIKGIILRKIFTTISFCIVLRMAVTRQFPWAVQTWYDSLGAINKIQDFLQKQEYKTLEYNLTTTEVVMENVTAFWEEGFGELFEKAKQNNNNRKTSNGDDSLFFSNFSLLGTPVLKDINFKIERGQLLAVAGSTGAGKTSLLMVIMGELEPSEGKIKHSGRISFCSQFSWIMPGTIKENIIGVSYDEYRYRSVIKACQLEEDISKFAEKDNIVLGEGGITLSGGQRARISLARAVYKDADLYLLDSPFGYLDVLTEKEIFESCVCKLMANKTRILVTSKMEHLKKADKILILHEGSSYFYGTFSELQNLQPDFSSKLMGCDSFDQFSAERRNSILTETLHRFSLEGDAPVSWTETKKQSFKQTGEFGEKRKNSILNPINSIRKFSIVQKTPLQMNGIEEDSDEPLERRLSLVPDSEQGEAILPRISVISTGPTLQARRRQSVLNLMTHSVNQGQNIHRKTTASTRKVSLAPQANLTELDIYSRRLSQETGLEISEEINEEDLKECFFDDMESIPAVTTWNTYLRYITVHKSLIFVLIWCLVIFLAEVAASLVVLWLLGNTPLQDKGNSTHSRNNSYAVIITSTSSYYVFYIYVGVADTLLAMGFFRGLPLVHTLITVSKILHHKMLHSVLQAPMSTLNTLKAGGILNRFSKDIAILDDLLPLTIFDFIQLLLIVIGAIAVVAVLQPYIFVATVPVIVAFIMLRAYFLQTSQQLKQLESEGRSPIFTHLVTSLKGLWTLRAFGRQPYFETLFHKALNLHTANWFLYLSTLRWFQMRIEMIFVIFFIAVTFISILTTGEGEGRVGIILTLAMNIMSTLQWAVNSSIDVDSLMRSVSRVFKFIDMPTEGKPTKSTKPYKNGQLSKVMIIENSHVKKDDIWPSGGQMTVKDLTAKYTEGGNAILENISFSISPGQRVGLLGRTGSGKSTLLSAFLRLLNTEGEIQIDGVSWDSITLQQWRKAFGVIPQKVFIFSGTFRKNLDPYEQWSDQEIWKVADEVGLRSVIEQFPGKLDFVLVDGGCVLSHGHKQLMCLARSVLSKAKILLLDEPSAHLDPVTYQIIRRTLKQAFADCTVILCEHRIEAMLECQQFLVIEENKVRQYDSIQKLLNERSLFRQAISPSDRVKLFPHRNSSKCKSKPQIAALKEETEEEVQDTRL

First: COc1cc(N(C)C(=O)c2cccc(-n3nc(C(F)(F)F)c4c3CCN(C(=O)C(C)(C)C)C4)c2)ccn1 [Compound 090, 3-[5-(2,2-Dimethylpropanoyl)-3-(trifluoromethyl)-6,7-dihydro-4H-pyrazolo[4,3-c]pyridin-1-yl]-N-(2-methoxy-4-pyridyl)-N-methyl-benzamide]
Second: COc1ncc(NC(=O)c2cccc(-n3nc(C(F)(F)F)c4c3CCN(C(=O)C(C)(C)C)C4)c2)cn1 [Compound 081, 3-[5-(2,2-Dimethylpropanoyl)-3-(trifluoromethyl)-6,7-dihydro-4H-pyrazolo[4,3-c]pyridin-1-yl]-N-(2-methoxypyrimidin-5-yl)benzamide]
The EC50 of the first is lower: less than 1000 nM for the first, greater than 2000 nM for the second.

`CN(C(=O)c1cccc(-n2nc(C(F)(F)F)c3c2C(Oc2ccc(C(N)=O)cc2)CCC3)c1)c1ccc2c(c1)OC(F)(F)O2` (stereo not shown) [Compound 162, 3-[7-(4-Carbamoylphenoxy)-3-(trifluoromethyl)-4,5,6,7-tetrahydroindazol-1-yl]-N-(2,2-difluoro-1,3-benzodioxol-5-yl)-N-methyl-benzamide] and `CN(C(=O)c1cccc(-n2nc(C(F)(F)F)c3c2C(Oc2ccc(C(=O)O)cc2)CCC3)c1)c1ccc2c(c1)OC(F)(F)O2` (single isomer, unassigned) [Compound 150, (R) or (S)-4-[[1-[3-[(2,2-Difluoro-1,3-benzodioxol-5-yl)-methyl-carbamoyl]phenyl]-3-(trifluoromethyl)-4,5,6,7-tetrahydroindazol-7-yl]oxy]benzoic acid] cannot be ordered by EC50: less than 1000 nM for the first, less than 1000 nM for the second.

First: CN(C(=O)c1cccc(-n2nc(C(F)(F)F)c3c2C(Oc2cncc(C(=O)O)c2)CCC3)c1)c1ccc2c(c1)OC(F)(F)O2 (stereo not shown) [Compound 178, 5-[[1-[3-[(2,2-Difluoro-1,3-benzodioxol-5-yl)-methyl-carbamoyl]phenyl]-3-(trifluoromethyl)-4,5,6,7-tetrahydroindazol-7-yl]oxy]pyridine-3-carboxylic acid]
Second: CN(C(=O)c1cccc(-n2nc(C(F)(F)F)c3c2C(Oc2cncc(C(=O)O)c2)COC3)c1)c1ccc2c(c1)OC(F)(F)O2 (racemic) [Compound 210, 5-[[1-[3-[(2,2-Difluoro-1,3-benzodioxol-5-yl)-methyl-carbamoyl]phenyl]-3-(trifluoromethyl)-6,7-dihydro-4H-pyrano[4,3-c]pyrazol-7-yl]oxy]pyridine-3-carboxylic acid]
The EC50 of the first is lower: less than 1000 nM for the first, 1000 to 2000 nM for the second.

`CN(C(=O)c1cccc(-n2nc(C(F)(F)F)c3c2C(Oc2ccc(C(=O)O)cc2)CCC3)c1)c1ccc2c(c1)OCC2` (racemic) [Compound 261, (rac)-4-[[1-[3-[2,3-Dihydrobenzofuran-6-yl(methyl)carbamoyl]phenyl]-3-(trifluoromethyl)-4,5,6,7-tetrahydroindazol-7-yl]oxy]benzoic acid] and `CN(C(=O)c1cccc(-n2nc(C(F)(F)F)c3c2C(Oc2ccc(C(=O)O)cc2)CCC3)c1)c1ccc2c(c1)OC(F)(F)O2` (single isomer, unassigned) [Compound 151, (S) or (R)-4-[[1-[3-[(2,2-Difluoro-1,3-benzodioxol-5-yl)-methyl-carbamoyl]phenyl]-3-(trifluoromethyl)-4,5,6,7-tetrahydroindazol-7-yl]oxy]benzoic acid] cannot be ordered by EC50: less than 1000 nM for the first, less than 1000 nM for the second.

`CN(C(=O)c1cccc(-n2nc(C(F)(F)F)c3c2C(Oc2cc(C(=O)O)ccn2)COC3)c1)c1ccc2c(c1)OC(F)(F)O2` (racemic) [Compound 231, 2-[[1-[3-[(2,2-Difluoro-1,3-benzodioxol-5-yl)-methyl-carbamoyl]phenyl]-3-(trifluoromethyl)-6,7-dihydro-4H-pyrano[4,3-c]pyrazol-7-yl]oxy]pyridine-4-carboxylic acid] and `CN(C(=O)c1cccc(-n2nc(C(F)(F)F)c3c2C(Oc2ccc(C(=O)O)cn2)COC3)c1)c1ccc2c(c1)OC(F)(F)O2` (racemic) [Compound 213, 6-[[1-[3-[(2,2-Difluoro-1,3-benzodioxol-5-yl)-methyl-carbamoyl]phenyl]-3-(trifluoromethyl)-6,7-dihydro-4H-pyrano[4,3-c]pyrazol-7-yl]oxy]pyridine-3-carboxylic acid] cannot be ordered by EC50: less than 1000 nM for the first, less than 1000 nM for the second.

`Cc1cc(OC2CCCc3c(C(F)(F)F)nn(-c4cccc(C(=O)N(C)c5ccc6c(c5)OC(F)(F)O6)c4)c32)ccc1C(=O)O` (stereo not shown) [Compound 176, 4-[[1-[3-[(2,2-Difluoro-1,3-benzodioxol-5-yl)-methyl-carbamoyl]phenyl]-3-(trifluoromethyl)-4,5,6,7-tetrahydroindazol-7-yl]oxy]-2-methyl-benzoic acid] and `CN(C(=O)c1cccc(-n2nc(C(F)(F)F)c3c2C(Oc2ccc(C(=O)O)cn2)CCC3)c1)c1ccc2c(c1)OC(F)(F)O2` (single isomer, unassigned) [Compound 194, (R) or (S)-6-[[1-[3-[(2,2-Difluoro-1,3-benzodioxol-5-yl)-methyl-carbamoyl]phenyl]-3-(trifluoromethyl)-4,5,6,7-tetrahydroindazol-7-yl]oxy]pyridine-3-carboxylic acid] cannot be ordered by EC50: less than 1000 nM for the first, less than 1000 nM for the second.

Going from `CN(C(=O)c1cccc(-n2nc(C(F)(F)F)c3c2CCN(CCCC(=O)O)C3)c1)c1ccc2c(c1)OCO2` [Compound 135, 4-[1-[3-[1,3-Benzodioxol-5-yl(methyl)carbamoyl]phenyl]-3-(trifluoromethyl)-6,7-dihydro-4H-pyrazolo[4,3-c]pyridin-5-yl]butanoic acid] to `CN(C(=O)c1cccc(-n2nc(C(F)(F)F)c3c2CCN(C(=O)OC(C)(C)C)C3)c1)c1ccc2c(c1)OCO2` [Compound 001, Tert-butyl 1-[3-[1,3-benzodioxol-5-yl(methyl)carbamoyl]phenyl]-3-(trifluoromethyl)-6,7-dihydro-4H-pyrazolo[4,3-c]pyridine-5-carboxylate], the EC50 falls from greater than 2000 nM to less than 1000 nM. The second is the more potent here.

First: COc1cncc(N(C)C(=O)c2cccc(-n3nc(C(F)(F)F)c4c3C(Oc3ccc(C(=O)O)cc3)CCC4)c2)c1 (stereo not shown) [Compound 166, 4-[[1-[3-[(5-Methoxy-3-pyridyl)-methyl-carbamoyl]phenyl]-3-(trifluoromethyl)-4,5,6,7-tetrahydroindazol-7-yl]oxy]benzoic acid]
Second: CN(C(=O)c1cccc(-n2nc(C(F)(F)F)c3c2C(Oc2ccc(C(=O)O)cc2)CCC3)c1)c1cncc(C#N)c1 (racemic) [Compound 310, 4-[[1-[3-[(5-Cyano-3-pyridyl)-methyl-carbamoyl]phenyl]-3-(trifluoromethyl)-4,5,6,7-tetrahydroindazol-7-yl]oxy]benzoic acid]
The EC50 of the first is lower: less than 1000 nM for the first, 1000 to 2000 nM for the second. The first is the more potent here.

`CN(C(=O)c1cccc(-n2nc(C(F)(F)F)c3c2CCCN3C(=O)OC(C)(C)C)c1)c1ccc2c(c1)OCO2` [Compound 028, tert-Butyl 1-[3-[1,3-benzodioxol-5-yl(methyl)carbamoyl]phenyl]-3-(trifluoromethyl)-6,7-dihydro-5H-pyrazolo[4,3-b]pyridine-4-carboxylate] and `CN(C(=O)c1cccc(-n2nc(C(F)(F)F)c3c2CCN(C(=O)C(C)(C)c2ccccc2)C3)c1)c1ccc2c(c1)OCO2` [Compound 035, N-(1,3-Benzodioxol-5-yl)-N-methyl-3-[5-(2-methyl-2-phenyl-propanoyl)-3-(trifluoromethyl)-6,7-dihydro-4H-pyrazolo[4,3-c]pyridin-1-yl]benzamide] cannot be ordered by EC50: less than 1000 nM for the first, less than 1000 nM for the second.

`CN(C(=O)c1cccc(-n2nc(C(F)(F)F)c3c2C(Oc2cc(C(=O)O)ccn2)CCC3)c1)c1ccc2c(c1)OC(F)(F)O2` (single isomer, unassigned) [Compound 198, (R) or (S)-2-[[1-[3-[(2,2-Difluoro-1,3-benzodioxol-5-yl)-methyl-carbamoyl]phenyl]-3-(trifluoromethyl)-4,5,6,7-tetrahydroindazol-7-yl]oxy]pyridine-4-carboxylic acid] and `CN(C(=O)c1cccc(-n2nc(C(F)(F)F)c3c2C(Oc2ccc(CC(=O)O)cc2)CCC3)c1)c1ccc2c(c1)OC(F)(F)O2` (racemic) [Compound 318, 2-[4-[[1-[3-[(2,2-Difluoro-1,3-benzodioxol-5-yl)-methyl-carbamoyl]phenyl]-3-(trifluoromethyl)-4,5,6,7-tetrahydroindazol-7-yl]oxy]phenyl]acetic acid] cannot be ordered by EC50: less than 1000 nM for the first, less than 1000 nM for the second.

`Cc1nc2ccc(N(C)C(=O)c3cccc(-n4nc(C(F)(F)F)c5c4CCN(C)C5)c3)cc2o1` [Compound 040, N-Methyl-N-(2-methyl-1,3-benzoxazol-6-yl)-3-[5-methyl-3-(trifluoromethyl)-6,7-dihydro-4H-pyrazolo[4,3-c]pyridin-1-yl]benzamide] and `COCCS(=O)(=O)N1CCc2c(c(C(F)(F)F)nn2-c2cccc(C(=O)N(C)c3ccc4c(c3)OCO4)c2)C1` [Compound 068, N-(1,3-benzodioxol-5-yl)-3-[5-(2-methoxyethylsulfonyl)-3-(trifluoromethyl)-6,7-dihydro-4H-pyrazolo[4,3-c]pyridin-1-yl]-N-methyl-benzamide] cannot be ordered by EC50: less than 1000 nM for the first, less than 1000 nM for the second.

Compared with `Cc1nc2cc(F)c(N(C)C(=O)c3cccc(-n4nc(C(F)(F)F)c5c4C(Oc4ccc(C(=O)O)cc4)CCC5)c3)cc2o1` (stereo not shown) [Compound 153, 4-[[1-[3-[(5-Fluoro-2-methyl-1,3-benzoxazol-6-yl)-methyl-carbamoyl]phenyl]-3-(trifluoromethyl)-4,5,6,7-tetrahydroindazol-7-yl]oxy]benzoic acid], `CC(C)Oc1cc(N(C)C(=O)c2cccc(-n3nc(C(F)(F)F)c4c3C(Oc3ccc(C(=O)O)cc3)CCC4)c2)ccn1` (racemic) [Compound 317, 4-[[1-[3-[(2-Isopropoxy-4-pyridyl)-methyl-carbamoyl]phenyl]-3-(trifluoromethyl)-4,5,6,7-tetrahydroindazol-7-yl]oxy]benzoic acid] is higher in EC50: less than 1000 nM for the first, 1000 to 2000 nM for the second.

`CN(C(=O)c1cccc(-n2nc(C(F)(F)F)c3c2C(Oc2ncc(C(=O)O)cn2)COC3)c1)c1ccc2c(c1)OC(F)(F)O2` (racemic) [Compound 295, 2-[[1-[3-[(2,2-Difluoro-1,3-benzodioxol-5-yl)-methyl-carbamoyl]phenyl]-3-(trifluoromethyl)-6,7-dihydro-4H-pyrano[4,3-c]pyrazol-7-yl]oxy]pyrimidine-5-carboxylic acid] gave an EC50 of 1000 to 2000 nM.
